Measurements taken from PubChem BioAssay AID2060882 (Molecular Pharmacology Branch, DTP, NCI, 2025).
One block for each molecule: values may come before it.

Tested on: 898857-211-R-J1-PDC complex spheroids, growth % test/control
Experiment: Anticancer human tumor 898857-211-R-J1-PDC patient-derived melanoma cell line growth inhibition [RAS]
Conditions: for IC50: curve of first compound; for viability, T/C: stronger effect = lower value
Text: RAS pathway inhibitors in Combinations in Complex Spheroids
A high-throughput screen of multi-cell type tumor spheroids was designed to identify active combinations of RAS pathway inhibitors and targeted small molecules. Complex spheroids include a stromal component modeled by human endothelial cells (HUVEC) and fibroblasts modeled by human mesenchymal stem cells (MSCs). The concentration ranges selected for each drug and investigational agent were based upon clinically achievable concentrations if the clinical Cmax of the agent was known.
Compounds. The drugs and investigational agents: abemaciclib (NSC768073), cobimetinib (NSC768068), divarasib (GDC6063, NSC841802), docetaxel (NSC628503), GDC-1971 (RLY-1971, NSC841576), gemcitabine (NSC613327), inavolisib (NSC800729), ipatasertib (NSC767898), KB-0742 (NSC834161), MRTX-1133 (NSC836407), osimertinib (NSC779217), RMC-4630 (NSC839698), RMC-6236 (NSC851965), RMC-6291 (NSC852671), Ro-3306 (NSC812927), sapanisertib (NSC764658), SN-38 (NSC673596), staurosporine (NSC755774), SY5609 (NSC837396), and tovorafenib (DAY101, NSC766906), were obtained from the National Cancer Institute (NCI) Developmental Therapeutics Program Chemical Repository. The FDA-approved anticancer drug set is available from the NCI Developmental Therapeutics Program. […] The stock solutions were prepared in dimethyl sulfoxide (DMSO, Sigma-Aldrich, St. Louis, MO, cat. D2650) at 800-fold the tested concentration and stored at -70 degrees C prior to their use. All drugs and investigational agents were tested over a range starting from a high concentration at or near the clinical Cmax and decreasing in half-log increments. If the clinical Cmax for an agent had not been determined, the highest concentration tested was 10 microM.
Cell Culture. All cells were maintained in an incubator at 37 degrees C and 5% CO2 with 95% humidity. The PDC lines were cultured according to standard operating procedures established by the NCI PDMR. All PDCs were thawed and cultured in Matrigel-coated flasks prepared with a working solution of 1X Ham's F-12 nutrient mix, without supplementation (Invitrogen, Waltham, MA, cat. 11765054), 100 U/mL penicillin-streptomycin (Invitrogen, cat. 15140122), and 2.5% Matrigel (Corning Inc., Corning, NY, cat. 354248) for the first three passages. The 362531-283-R-J2-PDC and 782815-120-R-J1-PDC lines were cultured in 6C/Colon 1B media, which includes advanced DMEM/F-12 (Thermo Fisher Scientific, cat. 12634028), 10 mM HEPES (Thermo Fisher Scientific, cat. 15630080), 1X GlutaMAX supplement (Thermo Fisher Scientific, cat. 35050061), 0.1 mg/mL primocin (InvivoGen, San Diego, CA, cat. ant-pm-2), 10% defined fetal bovine serum, heat inactivated (HyClone Laboratories Inc., Logan, UT, cat. SH30070.03HI), 50% L-WRN conditioned media (ATCC, cat. CRL-3276), 1.25 mM N-Acetyl-L-cysteine (Sigma-Aldrich, cat. A9165), 10 mM nicotinamide (Sigma-Aldrich, cat. N0636), 1X B-27 supplement (Thermo Fisher Scientific, cat. 17504044), 1X N-2 supplement (Thermo Fisher Scientific, cat. 17502048), 50 ng/mL human EGF (Thermo Fisher Scientific, cat. PHG0311), and 10 microM Y-27632 dihydrochloride (Tocris Bioscience, cat. 1254). The K12877-001-R-J1-PDC line was cultured in 6I media, which includes all 6C/Colon 1B media plus 10 ng/mL human FGF-10 (PeproTech, cat. 100-26), 1 ng/mL human FGF-2 (PeproTech, cat. 100-18B), 1 µM prostaglandin E2 (Tocris Bioscience, cat. 2296), […] hydrocortisone (Sigma-Aldrich, cat. H4001), and […] bovine insulin (Sigma-Aldrich, cat. I6634). The K86415-001-R-J1-PDC line was cultured in 6D media, which includes all 6C/Colon 1B media components minus the L-WRN conditioned media. The 485176-168-R4-J1-PDC was cultured in PANC media, which includes all 6C/Colon 1B media plus 100 ng/mL human FGF-10 (PeproTech, cat. 100-26), 500 nM SB-431542 (Selleckchem, cat. S1067), and 10 nM gastrin (Tocris Bioscience, cat. 3006). […]

[1] = second compound 0.0316 µM, first compound 0.0316 µM
[2] = second compound 0.0316 µM, first compound 0.1 µM
[3] = second compound 0.0316 µM, first compound 0.316 µM
[4] = second compound 0.0316 µM, first compound 1 µM
[5] = second compound 0.0316 µM, first compound 3.16 µM
[6] = second compound 0.0316 µM, first compound 10 µM
[7] = second compound 0.1 µM, first compound 0.0316 µM
[8] = second compound 0.1 µM, first compound 0.1 µM
[9] = second compound 0.1 µM, first compound 0.316 µM
[10] = second compound 0.1 µM, first compound 1 µM
[11] = second compound 0.1 µM, first compound 3.16 µM
[12] = second compound 0.1 µM, first compound 10 µM
[13] = second compound 0.316 µM, first compound 0.0316 µM
[14] = second compound 0.316 µM, first compound 0.1 µM
[15] = second compound 0.316 µM, first compound 0.316 µM
[16] = second compound 0.316 µM, first compound 1 µM
[17] = second compound 0.316 µM, first compound 3.16 µM
[18] = second compound 0.316 µM, first compound 10 µM
[19] = second compound 1 µM, first compound 0.0316 µM
[20] = second compound 1 µM, first compound 0.1 µM
[21] = second compound 1 µM, first compound 0.316 µM
[22] = second compound 1 µM, first compound 1 µM
[23] = second compound 1 µM, first compound 3.16 µM
[24] = second compound 1 µM, first compound 10 µM
[25] = second compound 3.16 µM, first compound 0.0316 µM
[26] = second compound 3.16 µM, first compound 0.1 µM
[27] = second compound 3.16 µM, first compound 0.316 µM
[28] = second compound 3.16 µM, first compound 1 µM
[29] = second compound 3.16 µM, first compound 3.16 µM
[30] = second compound 3.16 µM, first compound 10 µM
[31] = second compound 10 µM, first compound 0.0316 µM
[32] = second compound 10 µM, first compound 0.1 µM
[33] = second compound 10 µM, first compound 0.316 µM
[34] = second compound 10 µM, first compound 1 µM
[35] = second compound 10 µM, first compound 3.16 µM
[36] = second compound 10 µM, first compound 10 µM
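Also: spheroids exposed to compound for seven days before readout.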
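For viability, T/C in this document: 100% = DMSO vehicle control wells.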

IC50 (second compound 0.0316 µM): 584 nM
IC50 (second compound 0.1 µM): 129 nM
IC50 (second compound 0.316 µM): 334 nM
IC50 (second compound 1 µM): 529 nM
IC50 (second compound 3.16 µM): 321 nM
IC50 (second compound 10 µM): < 31.6 nM
Structure (SMILES): CC1(O)CCCC1n1c(=O)c(C(F)F)cc2cnc(NC3CCN(S(C)(=O)=O)CC3)nc21 (stereo unspecified) + C#Cc1c(F)ccc2cc(O)cc(-c3ncc4c(N5CC6CCC(C5)N6)nc(OCC56CCCN5CC(F)C6)nc4c3F)c12
viability, T/C [1]: 66.1%
viability, T/C [2]: 53.6%
viability, T/C [3]: 44.3%
viability, T/C [4]: 49.5%
viability, T/C [5]: 43.1%
viability, T/C [6]: 19.9%
viability, T/C [7]: 95%
viability, T/C [8]: 52.6%
viability, T/C [9]: 38.7%
viability, T/C [10]: 43.4%
viability, T/C [11]: 48.3%
viability, T/C [12]: 23.4%
viability, T/C [13]: 76.8%
viability, T/C [14]: 50.7%
viability, T/C [15]: 41.8%
viability, T/C [16]: 49.8%
viability, T/C [17]: 43.5%
viability, T/C [18]: 19.4%
viability, T/C [19]: 79%
viability, T/C [20]: 57.6%
viability, T/C [21]: 46.2%
viability, T/C [22]: 46.8%
viability, T/C [23]: 48.3%
viability, T/C [24]: 18.1%
viability, T/C [25]: 88.7%
viability, T/C [26]: 54.5%
viability, T/C [27]: 49.4%
viability, T/C [28]: 41.5%
viability, T/C [29]: 46.7%
viability, T/C [30]: 16.5%
viability, T/C [31]: 37.5%
viability, T/C [32]: 24.6%
viability, T/C [33]: 26.9%
viability, T/C [34]: 27.1%
viability, T/C [35]: 35.8%
viability, T/C [36]: 2.8%

IC50 (second compound 0.0316 µM): 1070 nM
IC50 (second compound 0.1 µM): 1210 nM
IC50 (second compound 0.316 µM): 1240 nM
IC50 (second compound 1 µM): 1260 nM
IC50 (second compound 3.16 µM): 1090 nM
IC50 (second compound 10 µM): 32 nM
Structure (SMILES): CCC(CC)c1cc(NC2CCC(N)C2)n2nccc2n1 (stereo unspecified) + C#Cc1c(F)ccc2cc(O)cc(-c3ncc4c(N5CC6CCC(C5)N6)nc(OCC56CCCN5CC(F)C6)nc4c3F)c12
viability, T/C [1]: 113%
viability, T/C [2]: 105%
viability, T/C [3]: 97.6%
viability, T/C [4]: 54.5%
viability, T/C [5]: 1.81%
viability, T/C [6]: 0.32%
viability, T/C [7]: 119%
viability, T/C [8]: 98.3%
viability, T/C [9]: 101%
viability, T/C [10]: 60%
viability, T/C [11]: 2.14%
viability, T/C [12]: 0.33%
viability, T/C [13]: 99.7%
viability, T/C [14]: 107%
viability, T/C [15]: 93.4%
viability, T/C [16]: 61.6%
viability, T/C [17]: 1.82%
viability, T/C [18]: 0.52%
viability, T/C [19]: 103%
viability, T/C [20]: 121%
viability, T/C [21]: 105%
viability, T/C [22]: 61.9%
viability, T/C [23]: 2.03%
viability, T/C [24]: 0.38%
viability, T/C [25]: 105%
viability, T/C [26]: 97.1%
viability, T/C [27]: 92.5%
viability, T/C [28]: 55%
viability, T/C [29]: 1.64%
viability, T/C [30]: 0.34%
viability, T/C [31]: 52.9%
viability, T/C [32]: 32.4%
viability, T/C [33]: 30%
viability, T/C [34]: 25.2%
viability, T/C [35]: 0.4%
viability, T/C [36]: 0.18%

IC50 (second compound 0.0316 µM): 269 nM
IC50 (second compound 0.1 µM): 256 nM
IC50 (second compound 0.316 µM): 235 nM
IC50 (second compound 1 µM): 298 nM
IC50 (second compound 3.16 µM): 196 nM
IC50 (second compound 10 µM): 6.16 nM
Structure (SMILES): CCN1CCN(Cc2ccc(Nc3ncc(F)c(-c4cc(F)c5nc(C)n(C(C)C)c5c4)n3)nc2)CC1 + C#Cc1c(F)ccc2cc(O)cc(-c3ncc4c(N5CC6CCC(C5)N6)nc(OCC56CCCN5CC(F)C6)nc4c3F)c12
viability, T/C (second compound 0.0316 µM, first compound 0.00316 µM): 98.6%
viability, T/C (second compound 0.0316 µM, first compound 0.01 µM): 87.4%
viability, T/C [1]: 91.9%
viability, T/C [2]: 74.3%
viability, T/C [3]: 46%
viability, T/C [4]: 37.5%
viability, T/C (second compound 0.1 µM, first compound 0.00316 µM): 101%
viability, T/C (second compound 0.1 µM, first compound 0.01 µM): 92.6%
viability, T/C [7]: 96.6%
viability, T/C [8]: 75.2%
viability, T/C [9]: 44.4%
viability, T/C [10]: 42.1%
viability, T/C (second compound 0.316 µM, first compound 0.00316 µM): 112%
viability, T/C (second compound 0.316 µM, first compound 0.01 µM): 99.5%
viability, T/C [13]: 96%
viability, T/C [14]: 65.4%
viability, T/C [15]: 44.9%
viability, T/C [16]: 32.2%
viability, T/C (second compound 1 µM, first compound 0.00316 µM): 93%
viability, T/C (second compound 1 µM, first compound 0.01 µM): 101%
viability, T/C [19]: 96.5%
viability, T/C [20]: 72.1%
viability, T/C [21]: 51.2%
viability, T/C [22]: 38.2%
viability, T/C (second compound 3.16 µM, first compound 0.00316 µM): 107%
viability, T/C (second compound 3.16 µM, first compound 0.01 µM): 92.3%
viability, T/C [25]: 91.2%
viability, T/C [26]: 56.5%
viability, T/C [27]: 45.9%
viability, T/C [28]: 33.6%
viability, T/C (second compound 10 µM, first compound 0.00316 µM): 56.4%
viability, T/C (second compound 10 µM, first compound 0.01 µM): 45.8%
viability, T/C [31]: 32.5%
viability, T/C [32]: 21.5%
viability, T/C [33]: 11.3%
viability, T/C [34]: 2.36%
